For assay [1], the system named is Plasmodium falciparum. Description: Antimalarial activity against Plasmodium falciparum W2 Indochina; moderate activity. In kind it is functional, organism-based.
The test system of assay [2] is Plasmodium falciparum. Description: Antimalarial activity against Plasmodium falciparum D6 (Sierra Leone); moderate activity. It counts as functional, organism-based.
Assay [3] concerns SNB-75. Briefly: Antitumor activity was evaluated for reduction of growth of SNB-75 cancer cells at a concentration of 100 uM. In kind it is functional, Homo sapiens.
For another assay, the system named is A498. Briefly: Antitumor activity was evaluated for reduction of growth of renal cancer (A498) cells at a concentration of 100 uM. In kind it is functional, Homo sapiens.
Assay [4] relates to SNB-75. Description: Antitumor activity was evaluated for reduction of growth of CNS cancer (SNB-75)cells at a concentration of 100 uM. It counts as functional, Homo sapiens.
The subject of a further assay is HL-60. Briefly: Antitumor activity was evaluated for reduction of growth of leukemia(HL-60 (TB)) cancer cells at a concentration of 100 uM. In kind it is functional, Homo sapiens.
A short description of assay [5]: Antitumor activity was evaluated for reduction of growth of non-small cell lung (NCL-H522) cancer cells at a concentration of 100 uM. In kind it is functional, Homo sapiens, Cancer cell lines.

Drawing on ChEMBL document CHEMBL1131657, “Syntheses and kinetic evaluation of hydroxamate-based peptide inhibitors of glyoxalase I” (Bioorg Med Chem Lett, 1998), this text covers Activity and Reduction for 3 compounds.

Where “and” joins values, the source holds several entries; their conditions need not be identical. Equal entries are not always repeated. *1 amine or outer side, *2 acyl side, *3 side chain or, on linkers, in order; H or OH if unused. Where a SMILES comes first, the peptide text is derived from it. The star is where a group is joined. γGlu = O=C(O)[CH](CCC(=O)[*:2])N[*:1]; NHOH = ON*

On to `CN(O)C(=O)CCC(NC(=O)CCC(N)C(=O)O)C(=O)NCC(=O)O` (stereo not given), for which the Activity result with Plasmodium falciparum [1] and in the assay on Plasmodium falciparum [2] was “Poor or moderate activity” each time. Moreover, the Reduction with SNB-75 [3] was 40%.
As for `NC(CCC(=O)NC(CCC(=O)NO)C(=O)NCC(=O)O)C(=O)O` (stereo not given) (γGlu-Glu(NHOH)-Gly-OH; configuration not given here), the Activity entry with Plasmodium falciparum [1] and in the assay on Plasmodium falciparum [2] was “Poor or moderate activity” throughout. Further, the Reduction in the assay with A498 was 34% and 31%; in the assay with SNB-75 [4] it was 31%; in the assay on HL-60 it was 46%; in assay [5], 38%.
In the case of `CCOC(=O)CNC(=O)C(CCC(=O)NO)NC(=O)CCC(N)C(=O)O` (stereo not given) (γGlu-Glu(NHOH)-Gly-OEt; configuration not given here), the Reduction with A498 was determined as 31%.
